We go through 1 substance from patent publication US20180296630A1, “METHODS AND COMPOSITIONS FOR PREVENTING OR TREATING OPHTHALMIC CONDITIONS” (Stealth BioTherapeutics Corp, priority 2012, published 2018).

One experiment concerns GTM3 cells. Kind of experiment: MMP decline, sustained oxidative injury by H2O2, GTM3 cells. It counts as cell-based, human. The following applies: then 200 μM H2O2 24 h. On the procedure:
(§1) The effects of D-Arg-2′,6′-Dmt-Lys-Phe-NH2 on sustained oxidative injury of GTM and HTM cells was examined. Cells were pre-treated with 10^−6, 10^−7, 10^−8M of D-Arg-2′,6′-Dmt-Lys-Phe-NH2 for 1 h, and then incubated with 200 μM H2O2 for 24 h to investigate the protective effect of D-Arg-2′,6′-Dmt-Lys-Phe-NH2 in sustained oxidative stress.

The next experiment relates to GTM cells. Kind of experiment: Mitochondrial membrane potential of GTM cells exposed to H2O2 (TMRM, confocal microscopy / flow cytometry). It counts as cell-based, human. The source says:
Methods to measure mitochondrial membrane potential using TMRM useful in the studies of the present invention have been described by Andrea Rasola and Massimo Geuna, A flow cytometry assay simultaneously detects independent apoptotic parameters, Cytometry 45:151-157, 2001; Mitoprobe™ JC-1 Kit for Flow Cytometry, Molecular Probes, Invitrogen, USA.
The mitochondrial membrane potential (Δψm) of HTM and GTM cells was investigated when those cells were exposed to hydrogen peroxide prior to administration of D-Arg-2′,6′-Dmt-Lys-Phe-NH2. First, the mitochondrial membrane potential was measured using confocal microscopy of cells labeled with tetramethylrhodamine methyl ester (TMRM, 500 nM×30 min) (FIG. 15). The mitochondrial membrane potential was also measured using flow cytometry (FIGS. 16-17) by labeling cells with the mitochondrion-selective probe tetramethylrhodamine methyl ester (TMRM, 500 nM×30 min).
The morphology of GTM cells was investigated when those cells were exposed to D-Arg-2′,6′-Dmt-Lys-Phe-NH2 prior to administration of hydrogen peroxide. […] That is, hydrogen peroxide mediated cell loss and rounding was diminished in cells exposed to D-Arg-2′,6′-Dmt-Lys-Phe-NH2 peptide. The mitochondrial membrane potential (Δψm) of HTM and GTM cells was also investigated when those cells were exposed to D-Arg-2′,6′-Dmt-Lys-Phe-NH2 prior to administration of hydrogen peroxide. The mitochondrial membrane potential was measured using confocal microscopy of cells labeled with tetramethylrhodamine methyl ester (TMRM, 500 nM×30 min) (FIG. 19-21). […] As such, D-Arg-2′,6′-Dmt-Lys-Phe-NH2 provides a protective effect against oxidative stress in GTM cells.
Background: A flow cytometer gives signals particle by particle.

Another experiment concerns GTM and HTM cells. Nature of the experiment: Oxidative stress induced by hydrogen peroxide in GTM and HTM cells (collective conclusion). The class given is cell-based, human. The procedure: The cells were divided into three groups: “Group A” cells were exposed to hydrogen peroxide prior to administration of D-Arg-2′,6′-Dmt-Lys-Phe-NH2. “Group B” cells were exposed to D-Arg-2′,6′-Dmt-Lys-Phe-NH2 prior to administration of hydrogen peroxide. “Group C” cells were administered D-Arg-2′,6′-Dmt-Lys-Phe-NH2 and hydrogen peroxide simultaneously.
as §1

The test system of another experiment is OIR mouse model. Kind of experiment: Oxygen-induced retinopathy (OIR) mouse model. The class given is in vivo. From the text:
In this model, 7-day-old mouse pups with partially developed retinal vasculature were subjected to hyperoxia (75% oxygen) for 5 days, which stops retinal vessel growth and causes significant vaso-obliteration. On postnatal day 12, the pups were returned to room air, and by postnatal day 17, a florid compensatory retinal neovascularization occurred. This model of pathological neovascularization has been widely used as a substitute for proliferative diabetic retinopathy (DR).
To examine the effects of the aromatic-cationic peptides of the invention on prevention of OIR, OIR was induced in mouse pups and the mice were simultaneously administered an aromatic-cationic peptide (e.g., Phe-D-Arg-Phe-Lys-NH2 or D-Arg-2′,6′-Dmt-Lys-Phe-NH2) for approximately 6 weeks. The results are shown in FIG. 26 and indicate that treatment with D-Arg-2′,6′-Dmt-Lys-Phe-NH2 prevented the compensatory retinal neovascularization. As such, the aromatic-cationic peptides of the invention are useful in methods of preventing proliferative diabetic retinopathy in mammalian subjects.

Experiment [1] relates to streptozocin diabetic rats. Nature of the experiment: Quantitative MRI of the retina in diabetic rats. The class given is in vivo, SD rats. The procedure: 7, issue 1. Glycated hemoglobin and retinal thickness ex vivo (histology) will also be measured in control, diabetic groups and D-Arg-2′,6′-Dmt-Lys-Phe-NH2 treatment groups.
Diabetes is induced with intraperitoneal injection of streptozocin (60 mg/kg) within 5 minutes of its preparation in 0.01 M citrate buffer (pH 4.5) in male SD rats with body weights of approximately 200 g after overnight fast. Diabetes is verified 3 days later by the presence of plasma hyperglycemia (>300 mg/dl) and elevated urine volume (more than 60 ml/d) in nonfasted rats. Rat body weight and blood glucose levels are monitored weekly. Subtherapeutic levels of insulin (0-2 U neutral protamine Hagedorn insulin administered subcutaneously daily) is administered to maintain blood glucose levels between 450 and 550 mg/dl without urine ketones. Glycated hemoglobin is measured after 2 months of diabetes (Glyco-Tek affinity columns, kit 5351; Helena Laboratories, Beaumont, Tex.).
Nine month old diabetic rats are treated with D-Arg-2′,6′-Dmt-Lys-Phe-NH2 by injection, either intraperitoneal (IP) or subcutaneous (SC), with 1, 5, or 10 mg/kg D-Arg-2′,6′-Dmt-Lys-Phe-NH2. Injections are once/day. After 7 days of treatment, the retinas of the rats in the treatment and control groups are evaluated.
Male SD rats are examined by MRI by the methods of Berkowitz et al. Central retinal thickness at 2, 3, 4, 6, and 9 months after induction of diabetes is measured, and in age-matched non-diabetic controls. At day 7 after D-Arg-2′,6′-Dmt-Lys-Phe-NH2 treatment, rats are again evaluated via MRI according to the methods of Berkowitz et al.

Experiment [2] concerns STZ diabetic rats with intraocular ischemia/reperfusion. Nature of the experiment: Efficacy Pharmacological Test 1: diabetic rats, intraocular ischemia/reperfusion, visual cell layer edema.

Take D-Arg-2′,6′-Dmt-Lys-Phe-NH2: the “MMP Decline” value in the experiment on GTM3 cells (0.01 μM pre-treatment 1 h) is reported as −31.33 ± 1.20 %; in the experiment on GTM3 cells (0.1 μM pre-treatment 1 h), −29.33 ± 2.19 %; with GTM3 cells (1 μM pre-treatment 1 h), −24.33 ± 4.18 %. In addition, the “decrease in mitochondrial potential (Δψm) elicited by H2O2” value in the experiment with GTM cells (GTM cells, co-treatment, 200 μM H2O2, confocal) is “dose-dependently inhibited the decrease”. Also, in the experiment with GTM cells (GTM cells, co-treatment, 400 μM H2O2, dose-dependent, confocal), the “loss of mitochondrial membrane potential caused by H2O2” value is listed as “reduced the loss”. Moreover, the mitochondrial membrane potential entry in the experiment on GTM cells (cells exposed to hydrogen peroxide prior to administration of peptide (Group A)) was “improves”; in the experiment on GTM cells (pre-treatment with peptide before hydrogen peroxide (Group B)), “dose-dependently improves”. Further, in the experiment with GTM and HTM cells, the “concentration at which sustained and acute oxidative stress induced by hydrogen peroxide can be prevented” value is reported as > 10^−9 M. Also, the avascular area entry with OIR mouse model (OIR mouse model (FIG. 26)) is given as “reduced”. For the same substance, the compensatory retinal neovascularization entry in the experiment with OIR mouse model (OIR mouse pups) was “prevented”. The Apparent diffusion coefficient entry in experiment [1] (1 mg/kg IP or SC injection), in experiment [1] (5 mg/kg IP or SC injection) and in experiment [1] (10 mg/kg IP or SC injection) was “N to N+” each time. Also, the Intraretinal water content result in experiment [1] (1 mg/kg IP or SC injection), in experiment [1] (5 mg/kg IP or SC injection) and in experiment [1] (10 mg/kg IP or SC injection) was “N to N+” throughout. The Retinal thickness entry in experiment [1] (1 mg/kg IP or SC injection), in experiment [1] (5 mg/kg IP or SC injection) and in experiment [1] (10 mg/kg IP or SC injection) was “N to N+” throughout. In experiment [2] (compared to the diabetic control group), the “loss of nuclei in the inner retinal layer” value is “absent, or much diminished”. Moreover, the “edema of the visual cell layer after ischemia/reperfusion” value in experiment [2] (diabetic groups, oral, parenteral or eye drops twice per day) is “no edema or very low levels of edema”.
